One series is described as follows: in vitro. Particulars: human, uninfected MT-4 cells, CC50 (nM), same protocol as Test A, CellTiter-Glo. An outline of the steps: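 Cytoprotection read-out: CellTiter-Glo chemiluminescence after 5 days at 37 °C of HIV-IIIb-infected MT-4 cells (m.o.i. 0.003) with compound in 10-point 3-fold dilutions, quadruplicate, 10% FBS. Cytotoxicity (CC50) measured identically without virus.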

For a further series, the system named is HIV-IIIb. Description: Test A: Antiviral assay in MT4 cells. It counts as cell-based, HIV-1. Particulars: Human immunodeficiency virus 1, IIIB, MT4, 120 h, read-out: % inhibition at 2 μM, percent inhibition of virus-induced cell killing, from dose response curve at 2 uM drug; MT-4 cells infected with HIV-IIIb, 5 days, CellTiter-Glo. For orientation: ATP-based viability assays read luminescence as a measure of living cells.

In general, CC50 refers to the concentration at which the toxic effect on the cells reaches its halfway point. Low readings indicate harm at low concentration, high ones better tolerance by the cells. For orientation: inhibition means the change of the read-out against control, counted positive when it falls.

Regarding `NC(=O)c1cc(-c2cccnc2[C@H](Cc2cc(F)cc(F)c2)NC(=O)Cn2cc(CNC3CC3)c(C(F)(F)F)n2)ccc1F` [Example 335, (S)-5-(2-(1-(2-(4-((cyclopropylamino)methyl)-3-(trifluoromethyl)-1H-pyrazol-1-yl)acetamido)-2-(3,5-difluorophenyl)ethyl)pyridin-3-yl)-2-fluorobenzamide], in the series “in vitro”, the midpoint of cytotoxicity, the CC50 at 5 days, lay at 51100 nM. Besides, the inhibition at 2 µM in the series with HIV-IIIb is 3%.

As for `NC(=O)c1cc(-c2cccnc2[C@H](Cc2cc(F)cc(F)c2)NC(=O)Cn2cnc3c(=O)[nH]ccc32)ccc1F` [Example 336, (S)-5-(2-(2-(3,5-difluorophenyl)-1-(2-(4-oxo-4,5-dihydro-1H-imidazo[4,5-c]pyridin-1-yl)acetamido)ethyl)pyridin-3-yl)-2-fluorobenzamide], the half-maximal cytotoxic concentration (CC50) at 5 days in “in vitro” is more than 53200 nM. Further, the inhibition at 2 µM in the series with HIV-IIIb is 0%.

In the case of `N#Cc1nn(CC(=O)N[C@@H](Cc2cc(F)cc(F)c2)c2ncccc2-c2ccc(F)c(C(N)=O)c2)cc1C1CC1` [Example 337, (S)-5-(2-(1-(2-(3-cyano-4-cyclopropyl-1H-pyrazol-1-yl)acetamido)-2-(3,5-difluorophenyl)ethyl)pyridin-3-yl)-2-fluorobenzamide], the CC50 at 5 days in “in vitro” was 27900 nM. Moreover, the inhibition at 2 µM in the series on HIV-IIIb is 20%.

In turn, `NC(=O)c1cccc(-c2cccnc2[C@H](Cc2cc(F)cc(F)c2)NC(=O)Cc2c[nH]c3cc(C4CC4)c(=O)[nH]c23)c1` [Example 338C, (S)-3-(2-(1-(2-(6-cyclopropyl-5-oxo-4,5-dihydro-1H-pyrrolo[3,2-b]pyridin-3-yl)acetamido)-2-(3,5-difluorophenyl)ethyl)pyridin-3-yl)benzamide] displayed a CC50 at 5 days in “in vitro” of more than 53000 nM. Besides, the inhibition at 2 µM with HIV-IIIb was 35%.

As for `NC(=O)c1cc(-c2cccnc2[C@H](Cc2cc(F)cc(F)c2)NC(=O)Cn2nc(C(F)(F)F)c3c2CCC=C3)ccc1F` [Example 339B, (S)-5-(2-(2-(3,5-difluorophenyl)-1-(2-(3-(trifluoromethyl)-6,7-dihydro-1H-indazol-1-yl)acetamido)ethyl)pyridin-3-yl)-2-fluorobenzamide], the midpoint of cytotoxicity in the series “in vitro”, the CC50 at 5 days, lay at 19400 nM. Further, the inhibition at 2 µM with HIV-IIIb was 53%.

On to `NC(=O)c1cc(-c2cccnc2[C@H](Cc2cc(F)cc(F)c2)NC(=O)Cn2nc(C(F)(F)F)c3c2C(F)(F)CCC3=O)ccc1F` [Example 340B, (S)-5-(2-(1-(2-(7,7-difluoro-4-oxo-3-(trifluoromethyl)-4,5,6,7-tetrahydro-1H-indazol-1-yl)acetamido)-2-(3,5-difluorophenyl)ethyl)pyridin-3-yl)-2-fluorobenzamide], for which the CC50 at 5 days in the series “in vitro” was 32800 nM. Further, the inhibition at 2 µM with HIV-IIIb is 32%.

`C#Cc1cn(CC(=O)N[C@@H](Cc2cc(F)cc(F)c2)c2ncccc2-c2ccc(F)c(C(N)=O)c2)nc1C(F)(F)F` [Example 341, (S)-5-(2-(2-(3,5-difluorophenyl)-1-(2-(4-ethynyl-3-(trifluoromethyl)-1H-pyrazol-1-yl)acetamido)ethyl)pyridin-3-yl)-2-fluorobenzamide] came in with a CC50 at 5 days in “in vitro” of 26600 nM. The inhibition at 2 µM with HIV-IIIb is 13%.

The compound `NC(=O)c1cc(-c2cccnc2[C@H](Cc2cc(F)cc(F)c2)NC(=O)Cn2nc(C(F)(F)F)c3c2C2CC2CC3)ccc1F` (stereo partly drawn) [Example 342C, 5-(2-((1S)-2-(3,5-difluorophenyl)-1-(2-(3-(trifluoromethyl)-5,5a,6,6a-tetrahydrocyclopropa[g]indazol-1(4H)-yl)acetamido)ethyl)pyridin-3-yl)-2-fluorobenzamide] displayed a CC50 at 5 days in the series “in vitro” of 13700 nM. In addition, the inhibition at 2 µM in the series on HIV-IIIb was 119%.

In “in vitro”, `CCc1c(C2CC2)c(C(F)(F)F)nn1CC(=O)N[C@@H](Cc1cc(F)cc(F)c1)c1ncccc1-c1ccc(F)c(C(N)=O)c1` [Example 343, (S)-5-(2-(1-(2-(4-cyclopropyl-5-ethyl-3-(trifluoromethyl)-1H-pyrazol-1-yl)acetamido)-2-(3,5-difluorophenyl)ethyl)pyridin-3-yl)-2-fluorobenzamide] came in with a CC50 at 5 days of 15500 nM. Besides, the inhibition at 2 µM in the series on HIV-IIIb came to 62%.

In the series “in vitro”, `Cc1cc(=O)n(CC(=O)N[C@@H](Cc2cc(F)cc(F)c2)c2ncccc2-c2cccc(S(N)(=O)=O)c2)c2ccccc12` [Example 345, (S)—N-(2-(3,5-difluorophenyl)-1-(3-(3-sulfamoylphenyl)pyridin-2-yl)ethyl)-2-(4-methyl-2-oxoquinolin-1(2H)-yl)acetamide] yielded a CC50 at 5 days of 12400 nM. Further, in the series with HIV-IIIb, the inhibition at 2 µM turned out to be 21%.

For `NC(=O)c1cc(-c2cccnc2[C@H](Cc2cc(F)cc(F)c2)NC(=O)Cn2nc3c(c2C(F)(F)F)C(=O)C2CC32)ccc1F` (stereo partly drawn) [Example 346D, 5-(2-((1S)-2-(3,5-difluorophenyl)-1-(2-(4-oxo-3-(trifluoromethyl)-4,4-a,5,5a-tetrahydro-2H-cyclopropa[4,5]cyclopenta[1,2-c]pyrazol-2-yl)acetamido)ethyl)pyridin-3-yl)-2-fluorobenzamide], half-maximal cytotoxicity in the series “in vitro” (CC50 at 5 days) was put at 39000 nM. The inhibition at 2 µM with HIV-IIIb worked out at 1%.

The compound `CC1(O)CCCc2c(C(F)F)nn(CC(=O)N[C@@H](Cc3cc(F)cc(F)c3)c3ncccc3-c3ccc(F)c(C(N)=O)c3)c21` (stereo partly drawn) [Example 349B, 5-(2-((1S)-1-(2-(3-(difluoromethyl)-7-hydroxy-7-methyl-4,5,6,7-tetrahydro-1H-indazol-1-yl)acetamido)-2-(3,5-difluorophenyl)ethyl)pyridin-3-yl)-2-fluorobenzamide] registered a CC50 at 5 days in the series “in vitro” of 40800 nM. In addition, in the series with HIV-IIIb, the inhibition at 2 µM was 94%.

For `NC(=O)c1cc(-c2cccnc2[C@H](Cc2cc(F)cc(F)c2)NC(=O)Cn2cc(C(F)F)c(C(F)(F)F)n2)ccc1F` [Example 350, (S)-5-(2-(1-(2-(4-(difluoromethyl)-3-(trifluoromethyl)-1H-pyrazol-1-yl)acetamido)-2-(3,5-difluorophenyl)ethyl)pyridin-3-yl)-2-fluorobenzamide], in the series “in vitro”, half-maximal cytotoxicity (CC50 at 5 days) was put at 28100 nM. In addition, the inhibition at 2 µM in the series with HIV-IIIb worked out at 10%.

Take `O=C(Cn1nc(C(F)(F)F)c2c1CCCC2)N[C@@H](Cc1cc(F)cc(F)c1)c1ncncc1-c1ccc(Cl)cc1` [Example 351, (S)—N-(1-(5-(4-chlorophenyl)pyrimidin-4-yl)-2-(3,5-difluorophenyl)ethyl)-2-(3-(trifluoromethyl)-4,5,6,7-tetrahydro-1H-indazol-1-yl)acetamide]: in “in vitro”, it took 8600 nM to reach half-maximal cytotoxicity (CC50 at 5 days). For the same compound, the inhibition at 2 µM in the series with HIV-IIIb was 95%.

`Cc1cc2ncn(CC(=O)N[C@@H](Cc3cc(F)cc(F)c3)c3ncccc3-c3cccc(S(=O)(=O)NC4CC4)c3)c2cc1C` [Example 353B, (S)—N-(1-(3-(3-(N-cyclopropylsulfamoyl)phenyl)pyridin-2-yl)-2-(3,5-difluorophenyl)ethyl)-2-(5,6-dimethyl-1H-benzo[d]imidazol-1-yl)acetamide] had a CC50 at 5 days in “in vitro” of 12700 nM. In addition, the inhibition at 2 µM in the series on HIV-IIIb was determined as 110%.

In “in vitro”, `Cc1cc2[nH]cc(CC(=O)N[C@@H](Cc3cc(F)cc(F)c3)c3ncccc3-c3cccc(C(N)=O)c3)c2[nH]c1=O` [Example 354, (S)-3-(2-(2-(3,5-difluorophenyl)-1-(2-(6-methyl-5-oxo-4,5-dihydro-1H-pyrrolo[3,2-b]pyridin-3-yl)acetamido)ethyl)pyridin-3-yl)benzamide] had a CC50 at 5 days of more than 53000 nM. In addition, in the series on HIV-IIIb, the inhibition at 2 µM stood at 82%.

On to `NC(=O)c1cc(-c2cccnc2[C@H](Cc2cc(F)cc(F)c2)NC(=O)Cn2cc(C3=CCCC3)c(C(F)(F)F)n2)ccc1F` [Example 355, (S)-5-(2-(1-(2-(4-cyclopentenyl-3-(trifluoromethyl)-1H-pyrazol-1-yl)acetamido)-2-(3,5-difluorophenyl)ethyl)pyridin-3-yl)-2-fluorobenzamide], for which half-maximal cytotoxicity in the series “in vitro” (CC50 at 5 days) was put at 9460 nM. Besides, in the series on HIV-IIIb, the inhibition at 2 µM was found to be 1%.

In turn, `CC1(O)CCCc2c(C(F)(F)F)nn(CC(=O)N[C@@H](Cc3cc(F)cc(F)c3)c3ncccc3-c3ccc(F)c(C(N)=O)c3)c21` (stereo partly drawn) [Example 356, 5-(2-((1S)-2-(3,5-difluorophenyl)-1-(2-(7-hydroxy-7-methyl-3-(trifluoromethyl)-4,5,6,7-tetrahydro-1H-indazol-1-yl)acetamido)ethyl)pyridin-3-yl)-2-fluorobenzamide] gave a CC50 at 5 days in “in vitro” of 20600 nM. Moreover, the inhibition at 2 µM in the series on HIV-IIIb is 76%.

`CC(C)(C)C#Cc1cn(CC(=O)N[C@@H](Cc2cc(F)cc(F)c2)c2ncccc2-c2ccc(F)c(C(N)=O)c2)nc1C(F)(F)F` [Example 357, (S)-5-(2-(2-(3,5-difluorophenyl)-1-(2-(4-(3,3-dimethylbut-1-ynyl)-3-(trifluoromethyl)-1H-pyrazol-1-yl)acetamido)ethyl)pyridin-3-yl)-2-fluorobenzamide] yielded a CC50 at 5 days in “in vitro” of 8820 nM. In addition, the inhibition at 2 µM in the series with HIV-IIIb amounted to 0%.

For the compound `NC(=O)c1cccc(-c2cccnc2[C@H](Cc2cc(F)cc(F)c2)NC(=O)Cn2c(C(F)F)nc3ccccc32)c1` [Example 358, (S)-3-(2-(1-(2-(2-(difluoromethyl)-1H-benzo[d]imidazol-1-yl)acetamido)-2-(3,5-difluorophenyl)ethyl)pyridin-3-yl)benzamide], half-maximal cytotoxicity in the series “in vitro” (CC50 at 5 days) was put at 47400 nM. The inhibition at 2 µM with HIV-IIIb amounted to 20%.

As to `N#Cc1nn(CC(=O)N[C@@H](Cc2cc(F)cc(F)c2)c2ncccc2-c2ccc(F)c(C(N)=O)c2)cc1Br` [Example 359, (S)-5-(2-(1-(2-(4-bromo-3-cyano-1H-pyrazol-1-yl)acetamido)-2-(3,5-difluorophenyl)ethyl)pyridin-3-yl)-2-fluorobenzamide], the CC50 at 5 days in the series “in vitro” turned out to be 25300 nM. For the same compound, in the series on HIV-IIIb, the inhibition at 2 µM was found to be 2%.

In turn, `COc1nc2c(CC(=O)N[C@@H](Cc3cc(F)cc(F)c3)c3ncccc3-c3cccc(C(N)=O)c3)c[nH]c2cc1C` [Example 360E, (S)-3-(2-(2-(3,5-difluorophenyl)-1-(2-(5-methoxy-6-methyl-1H-pyrrolo[3,2-b]pyridin-3-yl)acetamido)ethyl)pyridin-3-yl)benzamide] yielded a CC50 at 5 days in “in vitro” of 13100 nM. Further, the inhibition at 2 µM in the series with HIV-IIIb is 55%.
